Measured values taken from patent publication US6583156B1 (Vernalis Research Limited, priority 1998, dated 2003).

What was measured:
[1] = molecular target: human adenosine A2A receptors (Homo sapiens, UniProt P29274); test: Binding affinities at hA2A receptors, displacement of [3H]-CGS 21680; conditions: in vitro binding, radioligand [3H]-CGS 21680
Description: The compounds were examined in an assay measuring in vitro binding to human adenosine A2A receptors by determining the displacement of the adenosine A2A receptor selective radioligand [^3H]-CGS 21680 using standard techniques.

[2] = test system: haloperidol-induced hypolocomotion; test: Haloperidol-induced hypolocomotion model; assay type: in vivo; conditions: mice, 10 mg/kg intraperitoneally, haloperidol 0.2 mg/kg
Description: This approach is also considered a valid method for screening drugs with potential antiparkinsonian effects. Thus, the ability of novel adenosine antagonists to block haloperidol-induced deficits in locomotor activity in mice can be used to assess both in vivo and potential antiparkinsonian efficacy.
Female TO mice (25-30 g) obtained from TUCK, UK, are used for all experiments. Animals are housed in groups of 8 [cage size−40 (width)×40 (length)×20 (height)cm] under 12 hr light/dark cycle (lights on 08:00 hr), in a temperature (20±2° C.) and humidity (55±15%) controlled environment. Animals have free access to food and water, and are allowed at least 7 days to acclimatize after delivery before experimental use.
Liquid injectable haloperidol (1 ml Serenance ampoules from Baker Norton, Harlow, Essex, each containing haloperidol BP 5 mg, batch # P424) are diluted to a final concentration of 0.02 mg/ml using saline. Test compounds are typically prepared as aqueous suspensions in 8% Tween. All compounds are administered intraperitoneally in a volume of 10 ml/kg.
1.5 hours before testing, mice are administered 0.2 mg/kg haloperidol, a dose that reduces baseline locomotor activity by at least 50%. […] Horizontal locomotor activity is determined by placing the cages within a frame containing a 3×6 array of photocells linked to a computer, which tabulates beam breaks. […]

[3] = test system: catalepsy; conditions: cited from earlier work
[4] = cited from earlier work

Sequence of human adenosine A2A receptors (P29274 whole entry): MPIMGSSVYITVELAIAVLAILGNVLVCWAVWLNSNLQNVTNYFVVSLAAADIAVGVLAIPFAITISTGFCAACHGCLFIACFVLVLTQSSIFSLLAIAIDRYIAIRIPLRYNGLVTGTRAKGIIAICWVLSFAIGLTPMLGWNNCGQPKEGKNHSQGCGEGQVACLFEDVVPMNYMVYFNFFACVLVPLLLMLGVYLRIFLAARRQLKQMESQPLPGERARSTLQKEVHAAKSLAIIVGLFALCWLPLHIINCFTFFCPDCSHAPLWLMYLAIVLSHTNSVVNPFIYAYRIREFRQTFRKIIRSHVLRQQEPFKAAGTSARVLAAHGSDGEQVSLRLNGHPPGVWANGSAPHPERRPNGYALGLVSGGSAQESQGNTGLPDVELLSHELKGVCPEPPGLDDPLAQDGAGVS

Compound: CCc1cccc2c(C(O)c3ccccc3)cc(C(F)(F)F)nc12 (stereo not drawn) [Example 31, 8-Ethyl-α-phenyl-2-trifluoromethy-4-quinolinemethanol]
- Ki [1]: 1770 nM
- melting point: 102 to 104 °C

Compound: Oc1cc(C(O)C2CCCCC2)c2ccccc2n1 (stereo not drawn) [Example 86, α-Cyclohexyl-2-hydroxy-4-quinolinemethanol]
- reversal of haloperidol-induced hypolocomotion [2]: significantly reversed
- melting point: > 250 °C

Compound: CCCn1c(=O)c2c(nc(/C=C/c3ccc(OC)c(OC)c3)n2C)n(CCC)c1=O [KF 17837, (E)-8-(3,4-dimethoxystyryl)-1,3-dipropyl-7-methylxanthine]
- anticataleptic effects of a subthreshold dose of L-DOPA plus benserazide ([3]; in vivo): potentiated
- catalepsy induced by haloperidol and reserpine ([3]; in vivo): reduced
- cataleptic responses induced by intracerebroventricular CGS 21680 ([3]; oral administration): significantly ameliorated

Compound: Cn1c(=O)c2[nH]cnc2n(C)c1=O [theophylline, 1,3-dimethylxanthine]
- mean objective disability scores ([4]; 15 Parkinsonian patients, up to 12 weeks, 150 mg/day): significant improvements
- serum theophylline levels ([4]; slow release oral preparation 150 mg/day, after one week, Parkinsonian patients): 4.44 mg/L
